Where “and” joins values, the source holds several entries; their conditions need not be identical. Equal values may be shown once.
How the values were obtained:
Format in all cases: cell-based
[1] = tested on: Halo–p53-R273H (FL)–mCherry 293T cells versus parental 293T cells; experiment: flow-cytometry growth competition; conditions: for normalized_mCherry_percentage: R273H, day 8, normalized to DMSO
Outline: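 Marker-positive and marker-negative cells mixed, plated at low density and treated with varying compound concentrations, passaged and retreated as needed. Fluorophore-positive versus negative fractions quantified by flow cytometry, gated on untreated mixtures.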

[2] = tested on: Halo–p53-Y220C ΔTAD–mCherry 293T cells; experiment: caspase 3/7 glo; conditions: for mean_norm (caspase 3/7 glo): Cell_Line Y220C, normalized to Concentration 0; for raw caspase 3/7 glo signal, single replicate: Y220C
Procedure: (§1) Cells were plated in 384-well plates (typically 1,500 cells per well) with varying concentrations of compounds with a total volume of 50 μl per well. After 1 day, caspase 3/7 glo reagent (Promega) was added following the manufacturer’s protocol and read out using an EnVision 2105 multimode plate reader.

[3] = tested on: parental 293T cells; experiment: caspase 3/7 glo; conditions: for mean_norm (caspase 3/7 glo): Cell_Line WT, normalized to Concentration 0; for raw caspase 3/7 glo signal, single replicate: WT
Procedure: as §1

[4] = tested on: Halo–p53-Y220C ΔTAD–mCherry 293T cells; experiment: annexin–PI staining; conditions: for P3_avg (P3 = early apoptotic) / P5_avg (P5 = late apoptotic): Cell_Line Y220C, proportion of cells
Procedure: Cells were plated in six-well plates and treated with varying concentrations of compounds for 1 day. Cells were stained with annexin V–AF488 and PI following the manufacturer’s instructions (Thermo Fisher, V13241) and analyzed by flow cytometry (Beckman CytoFLEX LX), using untreated cells to establish gates.

[5] = Y220C, Concentration 0.75, event count, single replicate

SMILES: CC[C@@H]1C(=O)N(C)c2cnc(Nc3ccc(C(=O)NCCOCCOCCOCCOCCC(=O)N4CCC(Nc5cccc6c5cc(C#CCNc5ccc(S(C)(=O)=O)cc5OC)n6CC(F)(F)F)CC4)cc3OC)nc2N1C1CCCC1 [p53-01, PMV6-PEG4-BI2536]
- normalized_mCherry_percentage ([1]; 1 nM): 95.51%
- normalized_mCherry_percentage ([1]; 10 nM): 97.26%
- normalized_mCherry_percentage ([1]; 100 nM): 96.23%
- normalized_mCherry_percentage ([1]; 1 uM): 90.97%
- activity in competition ([1]; day 8): did not observe any activity
- mean_norm (caspase 3/7 glo) ([2]; Concentration 19.5312): 1.044
- mean_norm (caspase 3/7 glo) ([2]; Concentration 39.0625): 0.9705
- mean_norm (caspase 3/7 glo) ([2]; Concentration 78.125): 0.9927
- mean_norm (caspase 3/7 glo) ([2]; Concentration 156.25): 0.9639
- mean_norm (caspase 3/7 glo) ([2]; Concentration 312.5): 0.9272
- mean_norm (caspase 3/7 glo) ([2]; Concentration 625): 0.8899
- mean_norm (caspase 3/7 glo) ([2]; Concentration 1250): 1.234
- mean_norm (caspase 3/7 glo) ([2]; Concentration 2500): 2.011
- mean_norm (caspase 3/7 glo) ([2]; Concentration 5000): 2.316
- mean_norm (caspase 3/7 glo) ([2]; Concentration 10000): 2.222
- raw caspase 3/7 glo signal, single replicate ([2]; Concentration 19.5312): 122690 and 136337 and 118028 and 144163
- raw caspase 3/7 glo signal, single replicate ([2]; Concentration 39.0625): 117294 and 127747 and 106194 and 133419
- raw caspase 3/7 glo signal, single replicate ([2]; Concentration 78.125): 123437 and 120512 and 118467 and 133301
- raw caspase 3/7 glo signal, single replicate ([2]; Concentration 156.25): 105036 and 125984 and 107588 and 142722
- raw caspase 3/7 glo signal, single replicate ([2]; Concentration 312.5): 120420 and 114761 and 112118 and 115705
- raw caspase 3/7 glo signal, single replicate ([2]; Concentration 625): 92711 and 123269 and 91753 and 136660
- raw caspase 3/7 glo signal, single replicate ([2]; Concentration 1250): 148294 and 147349 and 143892 and 176603
- raw caspase 3/7 glo signal, single replicate ([2]; Concentration 2500): 271302 and 236256 and 229038 and 267460
- raw caspase 3/7 glo signal, single replicate ([2]; Concentration 5000): 327582 and 262469 and 277595 and 289089
- raw caspase 3/7 glo signal, single replicate ([2]; Concentration 10000): 286008 and 259961 and 264959 and 298921
- induction of apoptosis ([2]; versus parental 293T, caspase 3/7 glo and annexin–PI, 1 day): differentially induced apoptosis
- mean_norm (caspase 3/7 glo) ([3]; Concentration 19.5312): 1.032
- mean_norm (caspase 3/7 glo) ([3]; Concentration 39.0625): 0.9788
- mean_norm (caspase 3/7 glo) ([3]; Concentration 78.125): 1.009
- mean_norm (caspase 3/7 glo) ([3]; Concentration 156.25): 0.9403
- mean_norm (caspase 3/7 glo) ([3]; Concentration 312.5): 0.9336
- mean_norm (caspase 3/7 glo) ([3]; Concentration 625): 0.8748
- mean_norm (caspase 3/7 glo) ([3]; Concentration 1250): 1.007
- mean_norm (caspase 3/7 glo) ([3]; Concentration 2500): 1.185
- mean_norm (caspase 3/7 glo) ([3]; Concentration 5000): 1.4986
- mean_norm (caspase 3/7 glo) ([3]; Concentration 10000): 1.763
- raw caspase 3/7 glo signal, single replicate ([3]; Concentration 19.5312): 133494 and 117337 and 138819 and 114789
- raw caspase 3/7 glo signal, single replicate ([3]; Concentration 39.0625): 123804 and 109630 and 139391 and 105438
- raw caspase 3/7 glo signal, single replicate ([3]; Concentration 78.125): 123731 and 127401 and 120215 and 121439
- raw caspase 3/7 glo signal, single replicate ([3]; Concentration 156.25): 127240 and 99863 and 130913 and 101408
- raw caspase 3/7 glo signal, single replicate ([3]; Concentration 312.5): 120672 and 107314 and 116046 and 112110
- raw caspase 3/7 glo signal, single replicate ([3]; Concentration 625): 120568 and 89735 and 125147 and 91991
- raw caspase 3/7 glo signal, single replicate ([3]; Concentration 1250): 122108 and 116864 and 133954 and 118859
- raw caspase 3/7 glo signal, single replicate ([3]; Concentration 2500): 139477 and 137713 and 153198 and 148518
- raw caspase 3/7 glo signal, single replicate ([3]; Concentration 5000): 207130 and 170945 and 175970 and 178176
- raw caspase 3/7 glo signal, single replicate ([3]; Concentration 10000): 233886 and 204323 and 214988 and 207998
- P3_avg (P3 = early apoptotic) ([4]; Concentration 0.75): 0.07971
- P5_avg (P5 = late apoptotic) ([4]; Concentration 0.75): 0.02225
- P3_avg (P3 = early apoptotic) ([4]; Concentration 1.5): 0.2575
- P5_avg (P5 = late apoptotic) ([4]; Concentration 1.5): 0.07698
- avgprop_P3 ([4]; Y220C, Concentration 0.75, average proportion AnnexinPos PIneg): 0.07971
- avgprop_P4 ([4]; Y220C, Concentration 0.75, average proportion PIpos AnnexinNeg): 0.05038
- avgprop_P5 ([4]; Y220C, Concentration 0.75, average proportion PIpos Annexinpos): 0.02225
- avgprop_P2 ([4]; Y220C, Concentration 0.75, average proportion viable): 0.8477
- P2_viable [4, 5]: 1654 and 1707 and 1670
- P3_AnnexinPos_PIneg [4, 5]: 165 and 158 and 150
- P4_PIpos_AnnexinNeg [4, 5]: 95 and 98 and 106
- P5_PIpos_Annexinpos [4, 5]: 45 and 43 and 44
- prop_P3 ([4]; Y220C, Concentration 0.75, proportion AnnexinPos PIneg, single replicate): 0.08423 and 0.07876 and 0.07614
- prop_P4 ([4]; Y220C, Concentration 0.75, proportion PIpos AnnexinNeg, single replicate): 0.04849 and 0.04885 and 0.05381
- prop_P5 ([4]; Y220C, Concentration 0.75, proportion PIpos Annexinpos, single replicate): 0.02297 and 0.02144 and 0.02234

Reference: paper PMC13128454, “Mutant p53 protein accumulation is selectively targetable by proximity-inducing drugs” (Nature Chemical Biology, 2025)
